Test [1] concerns the target T1, Tyrosine-protein kinase JAK3 (Homo sapiens, UniProt P52333).
T1 sequence (P52333 whole entry): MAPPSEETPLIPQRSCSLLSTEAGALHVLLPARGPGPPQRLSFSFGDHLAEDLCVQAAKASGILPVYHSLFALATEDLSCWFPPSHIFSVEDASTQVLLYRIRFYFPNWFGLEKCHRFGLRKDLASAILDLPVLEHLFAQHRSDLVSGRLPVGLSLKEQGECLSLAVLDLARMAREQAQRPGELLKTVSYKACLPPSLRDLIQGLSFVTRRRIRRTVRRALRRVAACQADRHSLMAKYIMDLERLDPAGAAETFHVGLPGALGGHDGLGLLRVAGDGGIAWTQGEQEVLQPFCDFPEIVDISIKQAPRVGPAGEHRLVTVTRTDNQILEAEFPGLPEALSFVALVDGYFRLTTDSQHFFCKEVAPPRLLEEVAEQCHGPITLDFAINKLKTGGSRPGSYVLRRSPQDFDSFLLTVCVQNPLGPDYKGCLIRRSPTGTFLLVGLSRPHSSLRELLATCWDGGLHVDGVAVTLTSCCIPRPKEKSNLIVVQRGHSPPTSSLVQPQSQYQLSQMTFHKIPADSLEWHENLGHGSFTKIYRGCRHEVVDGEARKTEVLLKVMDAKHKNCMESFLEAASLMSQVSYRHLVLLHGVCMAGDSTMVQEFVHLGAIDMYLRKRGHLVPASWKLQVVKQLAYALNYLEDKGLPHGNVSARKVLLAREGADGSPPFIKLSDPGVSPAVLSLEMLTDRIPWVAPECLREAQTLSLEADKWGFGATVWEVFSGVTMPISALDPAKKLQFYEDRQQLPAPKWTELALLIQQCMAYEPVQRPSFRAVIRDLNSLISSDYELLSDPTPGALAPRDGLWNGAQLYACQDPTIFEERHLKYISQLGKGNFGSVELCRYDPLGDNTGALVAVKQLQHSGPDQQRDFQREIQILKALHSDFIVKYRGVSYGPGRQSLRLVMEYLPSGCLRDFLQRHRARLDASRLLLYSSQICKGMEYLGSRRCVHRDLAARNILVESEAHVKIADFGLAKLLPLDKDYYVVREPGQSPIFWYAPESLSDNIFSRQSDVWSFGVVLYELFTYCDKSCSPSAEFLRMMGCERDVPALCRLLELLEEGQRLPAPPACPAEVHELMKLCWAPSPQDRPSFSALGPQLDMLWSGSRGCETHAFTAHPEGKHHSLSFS
Description: (§1) In vitro inhibition of Janus kinase 3.

The target of test [2] is T1, Tyrosine-protein kinase JAK3. Description: ChEBML_91954.
From the text: as §1

Each structure is given as a SMILES string. Where only a bound is given, the exact number is not on record here.

Our source for the IC50 values is BindingDB's records for doi:10.1016/s0960-894x(00)00051-2 (Astrazeneca, 2000).

Usually IC50 stands for the point on the concentration scale where inhibition reaches its midpoint. For `CC(C)(CN1CCOCC1)C(=O)c1ccc2ccccc2c1`, the IC50 in test [1] is > 1 mM.
The molecule `CC(C)N(CCC(=O)c1ccc2ccccc2c1)Cc1ccccc1` came in with an IC50 in test [2] of 0.0794 µM.
In test [2], `O=C(C=Cc1ccccc1Cl)CCN1CCOCC1` registered an IC50 of 12.6 µM. This IC50 is about 160-fold higher than that of the molecule before.
On the same count and under the same terms, the figure for `COc1ccc2cc(C(=O)CCN3CCOCC3)ccc2c1` is 15.8 µM; for `O=C(CCN1CCCCCC1)c1ccc2ccccc2c1` it is 0.794 µM; for `C=CC(O)c1ccc2ccccc2c1` (stereo not drawn) it is 501 µM.
Consider `O=C(CCNCc1ccccc1)c1ccc2ccccc2c1`, for which, in test [1], the IC50 was > 1 mM.
On the same count and under the same terms, the figure for `O=C(CCCN1CCOCC1)c1ccc2ccccc2c1` is > 1 mM.
As for `O=c1c(CN2CCOCC2)coc2cc3ccccc3cc12`, in test [1], the IC50 is > 1 mM.
As to `O=C(CCN1CCOCC1)c1ccc2ccccc2c1`, in test [2], the IC50 was determined as 2 µM.
Same read-out and setting: under `O=C(CCN1CCOCC1)c1ccc2ccc3ccccc3c2c1` stands 0.501 µM; under `N#C/C(=C\c1ccc(O)c(O)c1)C(=O)NCc1ccccc1`, 12.6 µM; under `C=CC(=O)c1ccc2ccccc2c1` [Thr1 inhibitor, 1], 0.0794 µM.
Same read-out and setting: the figure for `O=C(CCN1CCOCC1)c1cccc2ccccc12` is 3.16 µM.
Same read-out and setting: the figure for `CC(=Cc1ccccc1)C(=O)CCN1CCOCC1` is 12.6 µM.
Take `ON=C(CCN1CCOCC1)c1ccc2ccccc2c1`: the half-maximal inhibitory concentration (IC50) in test [1] was > 1 mM.
`CN(C)CCC(=O)c1ccc2ccccc2c1`: the IC50 in test [2] came out at 0.63 µM.
In test [2], `COc1cc2ccc(C(=O)CCN3CCOCC3)cc2cc1OC` registered an IC50 of 200 µM.
